Laboratory results taken from PMC12265377, “CC48 a new CB2R agonist/FAAH inhibitor dual drug blocks gastric cancer progression and overcomes paclitaxel resistance” (Journal of Experimental & Clinical Cancer Research : CR, 2025).
Where two headings read alike, the source gives them in different places.

Tests used:
HGC27-S cells [1] = experiment: Western blot of proliferation pathway proteins; assay type: cell-based, human; settings: 48 h, 6 µM AM630, 10 µM agonists
Procedure: Western Blotting analysis was performed as previously described in both HGC27-S/R and AGS cells. Briefly, for each experimental condition the cells were lysed in ice-cold lysis buffer (50 mM Tris, 10 mM EDTA, 1% v/v Triton-X100), supplemented with the protease/phosphatase inhibitor cocktail set (Merck KGaA, Darmstadt, Germany), incubated on ice for 15 min and centrifuged at 13,000 × g for 15 min at 4 °C. Protein extracts were quantified by Micro BCA™ Protein Assay Kit (Thermo Fisher Scientific Inc., MA USA) and 40 µg of total protein extract was loaded on SDS-PAGE and immunoblotted with the following antibodies: CB1R and CB2R (1:500, rabbit polyclonal, Abcam, Cambridge, UK), P-TSC2 (Ser939) and TSC2 (1:1000Cell Signaling, Beverly, MA, USA), PI3K (1:1000Cell Signaling, Beverly, MA, USA), P-P70 (Thr389) and P70 (1:1000Cell Signaling, Beverly, MA, USA), P-Akt (Ser473 Thr308) and Akt (1:1000Cell Signaling, Beverly, MA, USA), P-S6 (Ser235/236) and S6 (1:1000Cell Signaling, Beverly, MA, USA), 4EBP1(1:1000Cell Signaling, Beverly, MA, USA), P-ERK(Thr202/Tyr204) and ERK (1:1000Cell Signaling, Beverly, MA, USA), PPRγ (1:1000Cell Signaling, Beverly, MA, USA), Phospho-SAPK/JNK (Thr183/Tyr185) and JNK2 (1:1000 Cell Signaling, Beverly, MA, USA), Phospho-c-Jun (Ser63) and c-Jun (1:1000 Cell Signaling, Beverly, MA, USA), caspase 3/7 (1:1000 Cell Signaling, Beverly, MA, USA), Phospho-βcatenin (Ser675) and βcatenin (1:1000 Cell Signaling, Beverly, MA, USA), vimentin (1:1000Cell Signaling, Beverly, MA, USA), P-cofillin (Ser3) and cofillin (1:1000Cell Signaling, Beverly, MA, USA), actin (1:4000Cell Signaling, Beverly, MA, USA). Subsequently, the membranes were incubated with the corresponding horseradish peroxidase (HRP)-conjugated secondary antibodies (Bio-Rad, Hercules, CA, USA). An enhanced chemiluminescence kit (Bio-Rad, Hercules, CA, USA) was used. […] Total protein expression was quantified using the ImageJ software (http://rsb.info.nih.gov/ij/). […]

NCI-N87 cells [2] = experiment: Muse caspase 3/7 activation assay; assay type: cell-based, human
Excerpt: (§1) After the specified drug treatments, the cells were processed using the Muse Annexin V/Dead Cell Assay Kit (Luminex Corporation, Austin, USA) for quantitative analysis of live, early/ late apoptotic, and dead cells on a Muse Cell Analyzer. Briefly, the assay utilized Annexin V to detect phosphatidylserine on the external membrane of apoptotic cells. The fluorescent signal emitted by dye-conjugated antibodies was detected by flow cytometry technology (Muse Cell Analyzer, Luminex Corporation, Austin, USA). 7-Amino-Actinomycin D (7-AAD) dead cell marker was also used. The cells were then analyzed according to the user’s guide. […] After 48 h treatments the cells were processed according to the user’s guide and analyzed with the Muse caspase-3/7 kit (Millipore).The assay provides the relative percentage of living, early/late apoptotic or dead cells.

HGC27-S cells [3] = experiment: Muse caspase 3/7 activation assay; assay type: cell-based, human; settings: 48 h
Excerpt: as §1

HGC27-R cells [4] = experiment: Muse caspase 3/7 activation assay; assay type: cell-based, human; settings: 48 h
Excerpt: as §1

CB2R = molecular target: CB2R; set-up: method as in PMID 7776818, PMID 36542836, PMID 36657299, PMID 20393015; settings: ± SEM; read-out: CB2R affinity Ki; cited from earlier work
HGC27-S cells [5] = experiment: MTT cytotoxicity assay; assay type: cell-based, human; settings: read-out: Cytotoxic activity IC50±SEM
Procedure: (§2) Cell viability was checked with the MTT assay at 48 h and 72 h [24]in HGC27-S/R and AGS gastric cancer cell lines. On day 1, 5000 cells/well were seeded into 96-well plates in a volume of 100 µL. On day 2, each drug was added at the concentrations: 0.1µM, 1µM, 10µM, 30µM, 50µM, 100µM. In all the experiments, the various drug-solvents (ethanol, DMSO) were added in each control to evaluate a possible solvent cytotoxicity. After the established incubation time with drugs (48 h, 72 h), MTT (0.5 mg/mL) was added to each well, and after 3 h incubation at 37 °C, the supernatant was removed. The formazan crystals were solubilized using 100 µL of DMSO and the absorbance values at 570 and 630 nm were determined on the microplate reader Victor 3 from PerkinElmer Life Sciences. Results are expressed as mean ± SD of 3 independent experiments in triplicate.

HGC27-R cells [6] = experiment: MTT cytotoxicity assay; assay type: cell-based, human; settings: read-out: Cytotoxic activity IC50±SEM
Procedure: as §2

AGS cells = experiment: MTT cytotoxicity assay; assay type: cell-based, human; settings: read-out: Cytotoxic activity IC50±SEM
Procedure: as §2

HGC27-S cells [7] = experiment: Muse Ki67 cell proliferation assay; assay type: cell-based, human
Excerpt: After the specified drug treatments, the cells were processed with the Muse Ki67 cell proliferation kit, which identified actively proliferating cells based on the expression of Ki67, a nuclear protein present in the active phases of the cell cycle (G1, S, G2, and M phases) and absent in the resting G0 phase. The Muse Ki67 Proliferation Assay was used with the Guava Muse Cell Analyzer according to the manufacturer’s instructions (Luminex Corporation, Austin, USA). Briefly, the cells were stained after fixation and permeabilization procedures, using Hu Ki67 or Hu IgG1 control fluorochrome-conjugated antibodies to distinguish Ki67(+) or Ki67(-) cells, respectively. The software provided the percentage of both Ki67(+) and Ki67(-) cells.

NCI-N87 cells [8] = experiment: MTT cytotoxicity assay; assay type: cell-based, human; settings: read-out: Cytotoxic activity IC50±SEM
[9] = NCI-N87, combination with 2 nM PTX, PTX alone 14.6%
[10] = NCI-N87, single treatment (2 nM PTX, 6 µM AM630, 10 µM others), untreated 6.35%
[11] = combination with 4 nM PTX, PTX alone 26.2%
[12] = single treatment (4 nM PTX, 6 µM AM630, 10 µM others), untreated 13.05%
[13] = single treatment (4 nM PTX, 6 µM AM630, 10 µM others), untreated 18.9%
[14] = HGC27-S, representative flow cytometry chart, 48 h, 10 µM CC48, PTX, single or combined as labelled

In the case of `COc1ccc(C(=O)c2c(C)n(CCN3CCOCC3)c3cc(I)ccc23)cc1` [AM630, reference compound], the “expression/activation of PI3K/Akt/mTOR and ERK1/2 pathway proteins (western blot)” value (from here on “expression/activation”) (HGC27-S cells [1]) is reported as “significant decrease in PI3K protein expression”, the “cells with activated caspase 3/7” value (NCI-N87 cells [2]; [9]) is reported as 15.9% and the “cells with activated caspase 3/7” value (NCI-N87 cells [2]; [10]) is reported as 9.5%. The “apoptotic cells (caspase 3/7 activation)” value (HGC27-S cells [3]; [11]) was 44.3%, the “apoptotic cells (caspase 3/7 activation)” value (HGC27-S cells [3]; [12]) was “only a slight increase” and the “apoptotic cells (caspase 3/7 activation)” value (HGC27-R cells [4]; combination with 4 nM PTX) was 62.4%. For the same molecule, the “apoptotic cells (caspase 3/7 activation)” value (HGC27-R cells [4]; [13]) was 32.9%, the Ki (CB2R) was 0.0312 µM and the IC50 (HGC27-S cells [5]; 48h) was 20.4 µM. It also gave an IC50 (HGC27-S cells [5]; 72h) of 13.7 ± 1.4 µM, an IC50 (HGC27-R cells [6]; 48h) of 19.6 ± 6.15 µM and an IC50 (HGC27-R cells [6]; 72h) of 19.1 ± 0.93 µM. For the same molecule, the IC50 (AGS cells; 48h) was 13.4 µM, the IC50 (AGS cells; 72h) was 7.5 ± 1.2 µM and the “percentage of Ki67+ cells” value (HGC27-S cells [7]) was 40.1%. For the same molecule, the IC50 (NCI-N87 cells [8]; 48h) was 22.7 µM and the IC50 (NCI-N87 cells [8]; 72h) was 15.6 ± 0.26 µM.
In the case of `CCCCCNc1ccccc1C(=O)NC12CC3CC(CC(C3)C1)C2` [ASF151], the “expression/activation” value (HGC27-S cells [1]) is reported as “no effect was detected”, the “cells with activated caspase 3/7” value (NCI-N87 cells [2]; [9]) is reported as 15.9% and the “cells with activated caspase 3/7” value (NCI-N87 cells [2]; [10]) is reported as 9.5%. The “apoptotic cells (caspase 3/7 activation)” value (HGC27-S cells [3]; [11]) was “no further increase over PTX”, the “apoptotic cells (caspase 3/7 activation)” value (HGC27-S cells [3]; [12]) was 20.25% and the “apoptotic cells (caspase 3/7 activation)” value (HGC27-R cells [4]; combination with 4 nM PTX) was 50.4%. For the same molecule, the “apoptotic cells (caspase 3/7 activation)” value (HGC27-R cells [4]; [13]) was 42%, the Ki (CB2R) was 0.0557 ± 0.0102 µM and the IC50 (HGC27-S cells [5]; 48h) was 49 µM. It also gave an IC50 (HGC27-S cells [5]; 72h) of 30.1 ± 0.95 µM, an IC50 (HGC27-R cells [6]; 48h) of 27.4 µM and an IC50 (HGC27-R cells [6]; 72h) of 28 ± 0.63 µM. The IC50 (AGS cells; 48h) was 33 µM, the IC50 (AGS cells; 72h) was 42.3 ± 2.2 µM and the “percentage of Ki67+ cells” value (HGC27-S cells [7]) was 38.6%. It also gave an IC50 (NCI-N87 cells [8]; 48h) of 33.1 µM and an IC50 (NCI-N87 cells [8]; 72h) of 29.3 ± 3.84 µM.
With `O=C(NC12CC3CC(CC(C3)C1)C2)c1ccccc1OCc1ccccc1` [CC48] the “expression/activation” value (HGC27-S cells [1]) was “significant decrease in PI3K protein expression”, the “cells with activated caspase 3/7” value (NCI-N87 cells [2]; [9]) was 23.3% and the “cells with activated caspase 3/7” value (NCI-N87 cells [2]; [10]) was 17.4%. For the same molecule, the dead cells (NCI-N87 cells [2]; NCI-N87, single treatment, control 5.8% / 5.6%) was 10.4%, the “apoptotic cells (caspase 3/7 activation)” value (HGC27-S cells [3]; [11]) was 62.7% and the “apoptotic cells (caspase 3/7 activation)” value (HGC27-S cells [3]; [12]) was 21%. The dead cells (HGC27-S cells [3]; single treatment, untreated 6.6%) was “without affecting the number of dead cells”, the “apoptotic cells (caspase 3/7 activation)” value (HGC27-R cells [4]; combination with 4 nM PTX) was 61.4% and the “apoptotic cells (caspase 3/7 activation)” value (HGC27-R cells [4]; [13]) was 33.8%. The Ki (CB2R) was 0.0148 ± 0.00449 µM, the IC50 (HGC27-S cells [5]; Homo sapiens, 48h) was 11.6 µM and the IC50 (HGC27-S cells [5]; Homo sapiens, 72h) was 14.5 ± 0.34 µM. For the same molecule, the IC50 (HGC27-R cells [6]; 48h) was 21.01 ± 0.002 µM, the IC50 (HGC27-R cells [6]; Homo sapiens, 48 h) was 21 µM and the IC50 (HGC27-R cells [6]; Homo sapiens, 72 h) was 21.2 ± 0.41 µM. The IC50 (AGS cells; Homo sapiens, 48h) was 57 µM, the IC50 (AGS cells; Homo sapiens, 72h) was 9.8 µM and the “percentage of Ki67+ cells” value (HGC27-S cells [7]; HGC27-S, 48 h, combination with 4 nM PTX (10 µM compound; 6 µM AM630), PTX alone 58.1%) was 42.3%. For the same molecule, the “percentage of Ki67+ cells” value (HGC27-S cells [7]; HGC27-S, 48 h, single treatment (10 µM CC48; 4 nM PTX), control 80.50%) was 75.75%, the “Ki67(+) cells” value (HGC27-S cells [7]; [14]) was 75.75% and the “Ki67(-) cells” value (HGC27-S cells [7]; [14]) was 24.25%. It also gave an IC50 (NCI-N87 cells [8]; Homo sapiens, 48h) of 15.1 µM and an IC50 (NCI-N87 cells [8]; Homo sapiens, 72h) of 9.42 ± 0.22 µM.
